These results are taken from patent US20160362416A1, “ANTIVIRAL COMPOUNDS” (Gilead Sciences, Inc., priority 2012, published 2016).

What all share (format): cell-based
The test system of test [1] is NS5A chimeric genotype 2a JFH-1 replicon with genotype 2b MD2b-1 strain NS5A gene (M31). The experiment in a line: HCV genotype 2b NS5A chimeric replicon assay, stable (s). The note with it: Hepatitis C virus, 72 h, read-out: 2b (s) (nM). As to the method:
(§1) Evaluation of cell-based anti-HCV activity: Antiviral potency (EC50) was determined using a Renilla luciferase (RLuc)-based HCV replicon reporter assay. To perform the assay for genotype 1 and 2a JFH-1, stable HCV 1a RLuc replicon cells (harboring a dicistronic genotype 1a H77 replicon that encodes a RLuc reporter), stable HCV lb RLuc replicon cells (harboring a dicistronic genotype 1b Conl replicon that encodes a RLuc reporter), or stable HCV 2a JFH-1 Rluc replicon cells (harboring a dicistronic genotype 2a JFH-1 replicon that encodes a RLuc reporter; with L31 present in NS5A) were dispensed into 384-well plates for EC50 assays. To perform the assay for genotype 2a (with M31 present in NS5A) or 2b, NS5A chimeric genotype 2a JFH-1 replicons that encodes a RLuc-Neo reporter and either genotype 2a J6 strain NS5A gene or genotype 2b MD2b-1 strain NS5A gene (both with M31 present) respectively, were either transiently transfected (t) into Huh-Lunet cells or were established as stably replicating replicon cells (s) is provided. Either cells were dispensed into 384-well plates for EC50 assays. To perform the assay for genotype 3 and 4, NS5A chimeric genotype 1b Conl replicons that encodes a Pi-RLuc reporter and either genotype 3a S52 strain NS5A gene or genotype 4a ED43 strain NS5A gene respectively, were transiently transfected (t) into Huh-Lunet cells, which were subsequently dispensed into 384-well plates. Compounds were dissolved in DMSO at a concentration of 10 mM and diluted in DMSO either manually or using an automated pipeting instrument. Serially 3-fold diluted compounds were either manually mixed with cell culture media and added to the seeded cells or directly added to the cells using an automated instrument. DMSO was used as a negative (solvent; no inhibition) control, and the protease inhibitor ITMN-191 was included at a concentration >100×EC50 as a positive control. 72 hours later, cells were lysed and Renilla luciferase activity quantified as recommended by the manufacturer (Promega-Madison, Wis.). Non-linear regression was performed to calculate EC50 values.

For test [2], the system named is stable HCV 1a RLuc replicon cells (genotype 1a H77 replicon). Briefly: HCV genotype 1a RLuc replicon reporter assay. The note with it: Hepatitis C virus; stable genotype 1a H77 RLuc replicon cells, 72 hours. As to the method:
as §1
(In antiviral work, replicon cells carry a viral genome segment that copies itself.)

The test system of test [3] is NS5A chimeric genotype 1b Con1 replicon with genotype 4a ED43 strain NS5A gene. The experiment in a line: HCV genotype 4a NS5A chimeric replicon assay. The note with it: Hepatitis C virus, 72 h, read-out: 4a (s) (nM). The procedure: as §1, with “[…],” for “were transiently transfected (t) into Huh-Lunet cells,”
Test [4] has as its system NS5A chimeric genotype 2a JFH-1 replicon with genotype 2a J6 strain NS5A gene (M31). Briefly: HCV genotype 2a J6 NS5A chimeric replicon assay, transient (t). Conditions: Hepatitis C virus, 72 h, read-out: 2a J6 (t) (nM). As to the method:
as §1

The subject of test [5] is NS5A chimeric genotype 1b Con1 replicon with genotype 3a S52 strain NS5A gene. Briefly: HCV genotype 3a NS5A chimeric replicon assay. The note with it: Hepatitis C virus, 72 h, read-out: 3a (nM). The procedure: as §1
Test [6] concerns stable HCV 2a JFH-1 Rluc replicon cells (L31 present in NS5A). Briefly: HCV genotype 2a JFH-1 RLuc replicon reporter assay. The note with it: Hepatitis C virus, 72 h, read-out: 2a JFH (nM). The procedure:
as §1

Test [7] relates to stable HCV 1b RLuc replicon cells (genotype 1b Con1 replicon). Briefly: HCV genotype 1b RLuc replicon reporter assay. The note with it: Hepatitis C virus; stable genotype 1b Con1 RLuc replicon cells, 72 hours. The procedure: as §1

Consider `COC(=O)N[C@H](C(=O)N1[C@@H](C)CC[C@H]1c1ncc(-c2ccc3c(c2)COc2cc4c(ccc5nc([C@@H]6CC[C@H](C)N6C(=O)[C@H](NC(=O)OC)[C@H]6C[C@@H](C)O[C@@H](C)C6)[nH]c54)cc2-3)[nH]1)C(C)C` [Example AN, Methyl {(2S)-1-[(2S,5S)-2-(5-{2-[(2S,5S)-1-{(2R)-2-[(2R,6S)-2,6-dimethyltetrahydro-2H-pyran-4-yl]-2-[(methoxycarbonyl)amino]acetyl}-5-methylpyrrolidin-2-yl]-1,11-dihydroisochromeno[4′,3′:6,7]naphtho[1,2-d]imidazol-9-yl}-1H-imidazol-2-yl)-5-methylpyrrolidin-1-yl]-3-methyl-1-oxobutan-2-yl}carbamate], for which the EC50 in test [1] was determined as 4.44 nM; in test [2], 4.44 nM; in test [3], 0.935 nM; in test [4] it was 4.44 nM; in test [5], 4.44 nM; in test [6], 0.852 nM. In test [7], the EC50 amounted to 0.049 nM.
As to `COC(=O)N[C@H](C(=O)N1[C@@H](c2ncc(-c3ccc4c(c3)COc3cc5c(ccc6nc([C@H]7C[C@@H](C)[C@@H](C)N7C(=O)[C@@H](NC(=O)OC)C7C[C@@H](C)O[C@H](C)C7)[nH]c65)cc3-4)[nH]2)C[C@@H](C)[C@H]1C)C1C[C@@H](C)O[C@H](C)C1` (stereo partly drawn) [Example BC, Methyl {(1S)-1-[(2R,6R)-2,6-dimethyltetrahydro-2H-pyran-4-yl]-2-[(2R,3R,5R)-5-(5-{2-[(2R,4R,5R)-1-{(2S)-2-[(2R,6R)-2,6-dimethyltetrahydro-2H-pyran-4-yl]-2-[(methoxycarbonyl)amino]acetyl}-4,5-dimethylpyrrolidin-2-yl]-1,11-dihydroisochromeno[4′,3′:6,7]naphtho[1,2-d]imidazol-9-yl}-1H-imidazol-2-yl)-2,3-dimethylpyrrolidin-1-yl]-2-oxoethyl}carbamate], the EC50 in test [1] turned out to be 23.1 nM; in test [2], 10.1 nM; in test [3], 6.24 nM; in test [5], 23.3 nM; in test [6] it was 8.04 nM; in test [7], 2.47 nM.
In the case of `CCOC(=O)N[C@H](C(=O)N1[C@@H](C)CC[C@H]1c1ncc(-c2ccc3c(c2)COc2cc4c(ccc5nc([C@@H]6CC[C@H](C)N6C(=O)[C@@H](NC(=O)OCC)C6C[C@@H](C)O[C@H](C)C6)[nH]c54)cc2-3)[nH]1)C1C[C@@H](C)O[C@H](C)C1` (stereo partly drawn) [Example BM, Ethyl {(1S)-1-[(2R,6R)-2,6-dimethyltetrahydro-2H-pyran-4-yl]-2-[(2S,5S)-2-(5-{2-[(2S,5S)-1-{(2S)-2-[(2R,6R)-2,6-dimethyltetrahydro-2H-pyran-4-yl]-2-[(ethoxycarbonyl)amino]acetyl}-5-methylpyrrolidin-2-yl]-1,11-dihydroisochromeno[4′,3′:6,7]naphtho[1,2-d]imidazol-9-yl}-1H-imidazol-2-yl)-5-methylpyrrolidin-1-yl]-2-oxoethyl}carbamate], the EC50 in test [2] is 0.034 nM; in test [3], 0.039 nM; in test [5], 0.143 nM; in test [6] it was 0.023 nM; in test [7], 0.053 nM.
On to `COC(=O)N[C@H](C(=O)N1[C@@H](C)CC[C@H]1c1nc2ccc3cc4c(cc3c2[nH]1)OCc1cc(-c2cnc([C@@H]3CC[C@H](C)N3C(=O)[C@@H](NC(=O)OC)C3(C)CCOCC3)[nH]2)ccc1-4)C(C)C` [Example AL, Methyl [(2S)-1-{(2S,5S)-2-[9-(2-{(2S,5S)-1-[(2S)-2-[(methoxycarbonyl)amino]-2-(4-methyltetrahydro-2H-pyran-4-yl)acetyl]-5-methylpyrrolidin-2-yl}-1H-imidazol-5-yl)-1,11-dihydroisochromeno[4′,3′:6,7]naphtho[1,2-d]imidazol-2-yl]-5-methylpyrrolidin-1-yl}-3-methyl-1-oxobutan-2-yl]carbamate], for which the EC50 in test [1] is 0.713 nM; in test [2] it was 0.02 nM; in test [3], 0.028 nM; in test [4], 0.776 nM; in test [5] it was 0.086 nM; in test [6], 0.026 nM. Moreover, in test [7], the EC50 came out at 0.03 nM.
With `COC(=O)N[C@H](C(=O)N1[C@@H](C)CC[C@H]1c1ncc(-c2ccc3c(c2)COc2cc4c(ccc5nc([C@@H]6CC[C@H](C)N6C(=O)[C@H](NC(=O)OC)C6C[C@@H](C)O[C@H](C)C6)[nH]c54)cc2-3)[nH]1)C(C)C` (stereo partly drawn) [Example AR, Methyl {(2S)-1-[(2S,5S)-2-(5-{2-[(2S,5S)-1-{(2R)-2-[(2R,6R)-2,6-dimethyltetrahydro-2H-pyran-4-yl]-2-[(methoxycarbonyl)amino]acetyl}-5-methylpyrrolidin-2-yl]-1,11-dihydroisochromeno[4′,3′:6,7]naphtho[1,2-d]imidazol-9-yl}-1H-imidazol-2-yl)-5-methylpyrrolidin-1-yl]-3-methyl-1-oxobutan-2-yl}carbamate], the EC50 in test [1] was found to be 15.8 nM; in test [2], 8.98 nM; in test [3] it was 4.19 nM; in test [4], 5.14 nM; in test [5] it was 8.3 nM; in test [6], 2.11 nM. In test [7], this compound displayed an EC50 of 0.09 nM.
`COC[C@H]1C[C@@H](c2ncc(-c3ccc4c(c3)COc3cc5c(ccc6nc([C@@H]7CC[C@H](C)N7C(=O)[C@@H](NC(=O)OC)C(C)C)[nH]c65)cc3-4)[nH]2)N(C(=O)[C@@H](NC(=O)OC)C2CCOCC2)C1` [Comp 2, reference compound]: the figures for the EC50 in test [2], in test [4] and in test [7] were 0.055 nM, 0.083 nM and 0.064 nM, respectively.
On to `COC(=O)N[C@H](C(=O)N1CCC[C@H]1c1ncc(-c2ccc3c(c2)COc2cc4c(ccc5nc([C@@H]6CCCN6C(=O)[C@@H](NC(=O)OC)C6CCOCC6)[nH]c54)cc2-3)[nH]1)C1CCOCC1` [Comp 11, reference compound], for which the figures for the EC50 in test [1], in test [2] and in test [7] were 0.203 nM, 0.203 nM and 0.416 nM, respectively.
